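Cells were grown in 96-well plates and exposed to each compound for 48 hours at five concentrations; endpoints were interpolated linearly between bracketing concentrations, or set to the highest concentration if not reached. Here, GI50 denotes the concentration required for 50% inhibition of growth.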 The source made the active and inactive calls. No stated cut-off is given here; in the data, active = GI50 up to about 1.1 µM and inactive = higher.
Columns and labels:
Assay in all cases: NCI-60 cell line screen, 48 h
ACHN = test system: ACHN
DMS-114 = test system: DMS-114
HCC 2998 = test system: HCC 2998
HCT-15 = test system: HCT-15
HOP-62 = test system: HOP-62
IGROV-1 = test system: IGROV-1
KM12 = test system: KM12
LOX IMVI = test system: LOX IMVI
LXFL 529 = test system: LXFL 529
SK-MEL-28 = test system: SK-MEL-28
SK-MEL-2 = test system: SK-MEL-2
SNB-19 = test system: SNB-19
SR = test system: SR
UACC-62 = test system: UACC-62
XF498 = test system: XF498

In the case of O=C(c1ccccc1)c1nc2ccc(Cl)cc2c2c1CCCO2, the GI50 (ACHN) is reported as > 100 µM (inactive), the GI50 (DMS-114) is reported as > 100 µM (inactive) and the GI50 (HCC 2998) is reported as > 100 µM (inactive). For the same molecule, the GI50 (HCT-15) was greater than 100 µM, the GI50 (HOP-62) was > 100 µM (inactive) and the GI50 (IGROV-1) was > 100 µM (inactive). The GI50 (KM12) was > 100 µM (inactive), the GI50 (LOX IMVI) was > 100 µM (inactive) and the GI50 (LXFL 529) was > 100 µM (inactive). For the same molecule, the GI50 (SK-MEL-28) was 33.7 µM (inactive), the GI50 (SK-MEL-2) was > 100 µM (inactive) and the GI50 (SNB-19) was > 100 µM (inactive). For the same molecule, the GI50 (SR) was > 100 µM (inactive), the GI50 (UACC-62) was > 100 µM (inactive) and the GI50 (XF498) was 65.9 µM (inactive).
